Source: patent US12528761B2, “Thyromimetics” (Autobahn Therapeutics, Inc., priority 2020, dated 2026)

How the values were obtained:
TRβ = molecular target: T1, TRβ (Homo sapiens, UniProt P10828); assay: TR reporter-gene assay (Gal4 DBD hybrid, luciferase), TRβ; format: cell-based; conditions: for EC50: HEK293-derived reporter cells, 24 hr treatment, read-out: TRβ EC50; for T3-SI (selectivity index, EC50 (TRα)/EC50 (TRβ)): class symbols
T1 construct: expressed in transfected cells; host or cells: HEK293
T1 sequence (P10828 217-461 limits assumed): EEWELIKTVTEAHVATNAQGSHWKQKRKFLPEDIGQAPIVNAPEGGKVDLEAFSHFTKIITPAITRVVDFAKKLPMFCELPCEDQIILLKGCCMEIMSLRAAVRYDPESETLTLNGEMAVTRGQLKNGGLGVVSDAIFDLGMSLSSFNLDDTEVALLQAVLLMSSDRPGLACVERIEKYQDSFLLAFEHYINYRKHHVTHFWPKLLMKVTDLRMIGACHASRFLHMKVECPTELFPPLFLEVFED
Summary of the method: (§1)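 HEK293 reporter cells expressing Gal4-DBD/TR ligand-binding hybrids driving firefly luciferase from a Gal4 UAS; cells pre-incubated 6 h, then treated 24 h at 37 °C in medium with 10% charcoal-stripped FBS (final DMSO 0.1–0.4%), in duplicate. Read-out was luminescence (RLU).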

[1] = molecular target: T2, recombinant human FAAH (rhFAAH) (Homo sapiens, UniProt O00519); assay: FAAH substrate evaluation (formation of acid metabolite, LC-MS/MS); format: biochemical; set-up: key: A: ke is equal to or less than 1.0; B: ke is greater than 1.0 and less than or equal to 2.5; C: ke is greater than 2.5; NC: no conversion; conditions: 0.5 ng/μL rhFAAH, 1 μM test compound, pH 8.0, room temperature, 0-60 minutes
T2 construct: purchased Cayman Chemical (Ann Arbor, MI, USA)
T2 sequence (O00519 1-579): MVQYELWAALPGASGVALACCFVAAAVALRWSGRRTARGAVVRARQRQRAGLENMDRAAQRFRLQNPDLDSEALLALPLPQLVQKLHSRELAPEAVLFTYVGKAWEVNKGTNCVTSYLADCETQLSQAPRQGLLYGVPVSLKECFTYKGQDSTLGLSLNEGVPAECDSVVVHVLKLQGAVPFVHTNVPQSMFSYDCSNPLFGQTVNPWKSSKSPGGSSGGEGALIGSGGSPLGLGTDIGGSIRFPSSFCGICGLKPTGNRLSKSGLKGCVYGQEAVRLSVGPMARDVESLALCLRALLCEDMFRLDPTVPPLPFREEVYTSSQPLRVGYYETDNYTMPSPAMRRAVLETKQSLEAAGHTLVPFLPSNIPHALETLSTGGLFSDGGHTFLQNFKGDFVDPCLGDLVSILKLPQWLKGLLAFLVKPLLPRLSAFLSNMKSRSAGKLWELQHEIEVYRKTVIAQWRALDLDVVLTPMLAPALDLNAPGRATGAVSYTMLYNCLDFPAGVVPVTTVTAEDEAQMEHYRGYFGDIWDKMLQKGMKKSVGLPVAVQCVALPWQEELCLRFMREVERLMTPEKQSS
Summary of the method: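 Test compound at 1 μM incubated at room temperature with 0.5 ng/μL rhFAAH, 0.1% BSA in Tris-EDTA pH 8.0; parallel incubations with 1 μM PF-3845 inhibitor. Samples quenched at 0-60 min; acid metabolite quantified by LC-MS/MS, ke taken as slope of metabolite concentration versus time.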

TRα = molecular target: T3, TRα (Homo sapiens, UniProt P10827); assay: TR reporter-gene assay (Gal4 DBD hybrid, luciferase), TRα; format: cell-based; conditions: HEK293-derived reporter cells, 24 hr treatment; read-out: TRα EC50
T3 construct: expressed in transfected cells; host or cells: HEK293
T3 sequence (P10827 1-410 isoform P10827-2): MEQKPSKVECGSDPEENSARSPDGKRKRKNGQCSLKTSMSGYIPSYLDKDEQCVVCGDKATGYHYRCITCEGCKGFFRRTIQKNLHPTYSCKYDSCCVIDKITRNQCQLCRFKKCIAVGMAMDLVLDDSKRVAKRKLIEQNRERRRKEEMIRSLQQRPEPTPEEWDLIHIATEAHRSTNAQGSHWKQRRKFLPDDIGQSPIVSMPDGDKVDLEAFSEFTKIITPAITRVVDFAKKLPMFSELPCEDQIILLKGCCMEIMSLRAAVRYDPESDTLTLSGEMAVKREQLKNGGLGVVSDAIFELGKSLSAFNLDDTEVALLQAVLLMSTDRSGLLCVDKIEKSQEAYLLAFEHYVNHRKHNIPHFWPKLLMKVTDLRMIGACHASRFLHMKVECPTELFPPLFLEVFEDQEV
Summary of the method: as §1

[2] = Brain levels of parent acid after dosing prodrug (FIG. 1); format: in vivo; conditions: compared with dosing Compound 15 itself
Description: The acid compounds of the present invention (R^1=—OR^1c and R^1c=H) are active agonists selectively activating the TRβ receptor. The amide compounds of the present invention (R^1=—NR^1aR^1b) may act as substrates for the specific hydrolase enzyme fatty acid-amide hydrolase (FAAH), which cleaves the amide, liberating the thyromimetic. Thus, prodrug conversion to drug is enhanced in tissues that express high levels of FAAH such as the central nervous system. […] The ester compounds of the present invention (R^1=—OR^1c and R^1c≠H) are also prodrugs, typically processed through the action of esterases which may exist selectively in specific tissues.

SMILES: CON(C)C(=O)Cc1cc(Cl)c(Cc2ccc(O)c(C(C)C)c2F)c(Cl)c1 [Compound 105, 2-(3,5-dichloro-4-(2-fluoro-4-hydroxy-3-isopropylbenzyl)phenyl)-N-methoxy-N-methylacetamide]
- EC50 (TRβ): > 1000 nM
- ke, observed rate constant for the acid metabolite formation [1]: NC

SMILES: CNC(=O)CSCc1cc(C)c(Cc2ccc(O)c(C(C)C)c2)c(Cl)c1F [Compound 217, 2-((3-chloro-2-fluoro-4-(4-hydroxy-3-isopropylbenzyl)-5-methylbenzyl)thio)-N-methylacetamide]
- EC50 (TRα): > 1000 nM
- EC50 (TRβ): > 1000 nM
- T3-SI (selectivity index, EC50 (TRα)/EC50 (TRβ)) (TRβ): ++ (3× < T3-SI ≤ 30×)
- ke, observed rate constant for the acid metabolite formation [1]: C (ke is greater than 2.5)

SMILES: CC(C)c1cc(Cc2c(Cl)cc(CCCC(=O)O)cc2Cl)ccc1O [Compound 16, 4-(3,5-dichloro-4-(4-hydroxy-3-isopropylbenzyl)phenyl)butanoic acid]
- EC50 (TRα): > 1000 nM
- EC50 (TRβ): 100 to 1000 nM
- T3-SI (selectivity index, EC50 (TRα)/EC50 (TRβ)) (TRβ): +++ (T3-SI > 30×)
- brain levels of the parent acid Compound 15 [2]: markedly higher brain levels

SMILES: COC(=O)CCc1cc(Cl)c(Cc2ccc(O)c(C(C)c3ccc(F)cc3)c2F)c(Cl)c1 (stereo not drawn) [Compound 17, methyl 3-(3,5-dichloro-4-(2-fluoro-3-(1-(4-fluorophenyl)ethyl)-4-hydroxybenzyl)phenyl)propanoate]
- brain levels of the parent acid Compound 15 [2]: markedly higher brain levels

SMILES: CONC(=O)Cc1cc(Cl)c(Cc2ccc(O)c(C(C)C)c2F)c(Cl)c1 [Compound 208, 2-(3,5-dichloro-4-(2-fluoro-4-hydroxy-3-isopropylbenzyl)phenyl)-N-methoxyacetamide]
- EC50 (TRα): > 1000 nM
- EC50 (TRβ): 100 to 1000 nM
- T3-SI (selectivity index, EC50 (TRα)/EC50 (TRβ)) (TRβ): ++ (3× < T3-SI ≤ 30×)
- ke, observed rate constant for the acid metabolite formation [1]: A (ke is equal to or less than 1.0)

SMILES: CNC(=O)CSc1cc(Cl)c(Cc2ccc(O)c(C(C)C)c2)c(Cl)c1 [Compound 195, 2-((3,5-dichloro-4-(4-hydroxy-3-isopropylbenzyl)phenyl)thio)-N-methylacetamide]
- ke, observed rate constant for the acid metabolite formation [1]: B (ke is greater than 1.0 and less than or equal to 2.5)

SMILES: CCNC(=O)CSc1cc(Cl)c(Cc2ccc(O)c(C(C)C)c2F)c(Cl)c1 [Compound 187, 2-((3,5-dichloro-4-(2-fluoro-4-hydroxy-3-isopropylbenzyl)phenyl)thio)-N-ethylacetamide]
- ke, observed rate constant for the acid metabolite formation [1]: A (ke is equal to or less than 1.0)

SMILES: CNC(=O)CNCc1cc(Cl)c(Cc2ccc(O)c(C(C)C)c2)c(Cl)c1 [Compound 111, 2-((3,5-dichloro-4-(4-hydroxy-3-isopropylbenzyl)benzyl)amino)-N-methylacetamide]
- ke, observed rate constant for the acid metabolite formation [1]: A (ke is equal to or less than 1.0)
